In article PMC9055250, “Design, synthesis, and biological evaluation of new 6,N^2-diaryl-1,3,5-triazine-2,4-diamines as anticancer agents selectively targeting triple negative breast cancer cells” (RSC Advances, 2020):
Read-outs that look alike come from different tables or passages of the source.

Columns and labels:
[1] = test system: MCF-10A human epithelial breast cell line; assay: MTT in vitro cytotoxicity assay, MCF-10A; type: cell-based; conditions: 72 h, read-out: GI50 ± SD MCF-10A
Experimental: (§1) The synthesized compounds were tested against three breast tumor cell lines (MDA-MB231, SKBR-3 and MCF-7) and epithelial breast cell line (MCF-10A) by the MTT colorimetric assay.[29,30] All cells were obtained from the American Type Culture Collection. The cancerous cell lines were grown in Dulbecco's modified eagle medium (DMEM) supplemented with 10% fetal bovine serum (FBS) and 1% pen-strep antibiotic. The MCF-10A human epithelial breast cell line was grown in the complete mammary epithelial growth medium containing horse serum 5%, epithelial growth factor 20 ng mL^−1, hydrocortisone […], cholera toxin 100 ng mL^−1, insulin 10 μg mL^−1, and pen-step antibiotic.[31] For the cytotoxic assay, 20 to 75 × 10^3 cells per mL (based on the doubling time for each cell line) were seeded in 96-well plates and the plates were incubated overnight in a humidified air atmosphere at 37 °C in 5% CO2 incubator.
(§2) The cells were then treated with compounds at different concentrations. After 72 h of incubation, the MTT (0.5 mg mL^−1) was added to wells, followed by 4 h of incubation. The culture medium was then removed and DMSO (100 μL per well) was added and the absorbance values were measured at 570 nm using the multi-well Tecan NanoQuant, Infinite m200 Pro plate reader. Growth inhibitory values (GI50) were calculated using GraphPad Prism 7 (GraphPad Software, San Diego, USA) by nonlinear regression analysis. Three independent experiments were carried out and the data was expressed in mean ± standard deviation (SD). The concentration–response curves used for the GI50 calculation are available in ESI. ^†

[2] = test system: MDA-MB231 breast cancer cells; assay: MTT in vitro cytotoxicity assay, MDA-MB231; type: cell-based; conditions: for viability at 10 µM / GI50: Homo sapiens, MDA-MB-231; for viability at 10 µM: read-out: Cell viability (%) MDA-MB231
Experimental: as §1, §2

[3] = test system: MCF-7 breast cancer cells; assay: MTT in vitro cytotoxicity assay, MCF-7; type: cell-based; conditions: Homo sapiens; for viability at 10 µM: MCF7, 10 μM, 72 h, read-out: Cell viability (%) MCF-7; for GI50: MCF7, 72 h, read-out: GI50 ± SD MCF-7
Experimental: as §1, §2

[4] = test system: SKBR-3 breast cancer cells; assay: MTT in vitro cytotoxicity assay, SKBR-3; type: cell-based; conditions: Homo sapiens; for viability at 10 µM: SK-BR-3, 10 μM, 72 h, read-out: Cell viability (%) SKBR-3; for GI50: SK-BR-3, 72 h, read-out: GI50 ± SD SKBR-3
Experimental: as §1, §2

[5] = 72 h, MTT, read-out: GI50 ± SD MDA-MB231
[6] = MDA-MB231, calculated from GI50, read-out: Experimental pGI50 (converted)

Row | SMILES | GI50 [1] [µM] | viability at 10 µM ([2]; 72 h, MTT) [%] | GI50 [2, 5] [µM] | GI50 [2, 6] [µM] | melting point [°C] | viability at 10 µM [3] [%] | GI50 [3] [µM] | viability at 10 µM [4] [%] | GI50 [4] [µM] | fold increase in antiproliferative activity over regioisomer ([2]; MDA-MB231, para- vs ortho-/meta-substituted ring B (13 vs 19, 14 vs 16, 15 vs 18)) [fold]
1 | COc1ccccc1Nc1nc(N)nc(-c2cccc(F)c2)n1 [Compound 1, 6-(3-Fluorophenyl)-N^2-(2-methoxyphenyl)-1,3,5-triazine-2,4-diamine] | > 20 | 49 | 17.3 ± 0.6 | 17.4 | 140 to 142 | 88 | > 20 | 84 | > 20 | 
2 | Cc1ccc(Nc2nc(N)nc(-c3ccc(Cl)cc3)n2)cc1 [Compound 2, 6-(4-Chlorophenyl)-N^2-(4-methylphenyl)-1,3,5-triazine-2,4-diamine] | > 20 | 29 | 13.8 ± 1.9 | 13.8 | 179 to 181 | 100 | > 20 | 85 | > 20 | 
3 | Nc1nc(Nc2ccccc2Cl)nc(-c2ccc(C(F)(F)F)cc2)n1 [Compound 3, N ^2-(2-Chlorophenyl)-6-(4-(trifluoromethyl)phenyl)-1,3,5-triazine-2,4-diamine] | > 20 | 49 | 13.7 ± 0.6 | 13.8 | 165 to 167 | 96 | > 20 | 83 | 17.7 ± 1.4 | 
4 | Nc1nc(Nc2ccc(Cl)cc2)nc(-c2ccc(OC(F)(F)F)cc2)n1 [Compound 4, N ^2-(4-Chlorophenyl)-6-(4-(trifluoromethoxy)phenyl)-1,3,5-triazine-2,4-diamine] | > 20 | 34 | 16.7 ± 1.2 | 16.6 | 201 to 203 | 95 | > 20 | 86 | > 20 | 
5 | CN(C)c1ccc(-c2nc(N)nc(Nc3ccccc3Cl)n2)cc1 [Compound 5, N ^2-(2-Chlorophenyl)-6-(4-(dimethylamino)phenyl)-1,3,5-triazine-2,4-diamine] | > 20 | 28 | 0.1 ± 0.001 | 0.1 | 191 to 193 | 86 | > 20 | 55 | 0.4 ± 0.04 | 
6 | Cc1ccc(-c2nc(N)nc(Nc3ccccc3Cl)n2)cc1 [Compound 6, N ^2-(2-Chlorophenyl)-6-(4-methylphenyl)-1,3,5-triazine-2,4-diamine] | > 20 | 36 | 3.8 ± 0.4 | 3.8 | 146 to 148 | 51 | 10.7 ± 1 | 80 | > 20 | 
7 | Cc1ccc(-c2nc(N)nc(Nc3ccc(Cl)cc3)n2)cc1 [Compound 7, N ^2-(4-Chlorophenyl)-6-(4-methylphenyl)-1,3,5-triazine-2,4-diamine] | > 20 | 51 | 9.6 ± 0.2 | 9.55 | 202 to 204 | 95 | > 20 | 76 | > 20 | 
8 | COc1ccc(-c2nc(N)nc(Nc3ccccc3)n2)cc1 [Compound 8, 6-(4-Methoxyphenyl)-N^2-phenyl-1,3,5-triazine-2,4-diamine] | > 20 | 28 | 8.4 ± 0.3 | 8.32 | 190 to 192 | 85 | 14.2 ± 1.7 | 67 | 19.6 ± 0.9 | 
9 | COc1ccc(-c2nc(N)nc(Nc3ccc(C)cc3)n2)cc1 [Compound 9, 6-(4-Methoxyphenyl)-N^2-(4-methylphenyl)-1,3,5-triazine-2,4-diamine] | > 20 | 32 | 6.1 ± 0.6 | 6.17 | 186 to 188 | 99 | > 20 | 89 | > 20 | 
10 | COc1cc(-c2nc(N)nc(Nc3ccccc3)n2)cc(OC)c1OC [Compound 10, N ^2-Phenyl-6-(3,4,5-trimethoxyphenyl)-1,3,5-triazine-2,4-diamine] | > 20 | 14 | 9.7 ± 0.6 | 9.77 | 111 to 113 | 62 | > 20 | 37 | 17.2 ± 0.4 | 
11 | COc1cc(-c2nc(N)nc(Nc3ccccc3F)n2)cc(OC)c1OC [Compound 11, N ^2-(2-Fluorophenyl)-6-(3,4,5-trimethoxyphenyl)-1,3,5-triazine-2,4-diamine] | > 20 | 34 | 7.9 ± 0.5 | 7.94 | 177 to 179 | 98 | > 20 | 73 | > 20 | 
12 | COc1cc(-c2nc(N)nc(Nc3ccccc3Cl)n2)cc(OC)c1OC [Compound 12, N ^2-(2-Chlorophenyl)-6-(3,4,5-trimethoxyphenyl)-1,3,5-triazine-2,4-diamine] | > 20 | 42 | 11.3 ± 1.1 | 11.2 | 176 to 178 | 100 | > 20 | 80 | > 20 | 
13 | COc1ccccc1Nc1nc(N)nc(-c2cc(OC)c(OC)c(OC)c2)n1 [Compound 13, N ^2-(2-Methoxyphenyl)-6-(3,4,5-trimethoxyphenyl)-1,3,5-triazine-2,4-diamine] | > 20 | 16 | 2.1 ± 0.2 | 2.04 | 173 to 175 | 100 | > 20 | 57 | 14 ± 1.6 | 
14 | COc1cc(-c2nc(N)nc(Nc3cccc(Cl)c3)n2)cc(OC)c1OC [Compound 14, N ^2-(3-Chlorophenyl)-6-(3,4,5-trimethoxyphenyl)-1,3,5-triazine-2,4-diamine] | > 20 | 40 | 9.1 ± 1.1 | 9.12 | 193 to 195 | 96 | > 20 | 58 | 16.7 ± 1.4 | 
15 | COc1cc(-c2nc(N)nc(Nc3cccc(C)c3)n2)cc(OC)c1OC [Compound 15, N ^2-(3-Methylphenyl)-6-(3,4,5-trimethoxyphenyl)-1,3,5-triazine-2,4-diamine] | > 20 | 14 | 2.2 ± 0.2 | 2.19 | 192 to 194 | 86 | > 20 | 43 | 6 ± 0.1 | 
16 | COc1cc(-c2nc(N)nc(Nc3ccc(Br)cc3)n2)cc(OC)c1OC [Compound 17, N ^2-(4-Bromophenyl)-6-(3,4,5-trimethoxyphenyl)-1,3,5-triazine-2,4-diamine] | > 20 | 24 | 0.008 ± 0.0005 | 0.00794 | 217 to 219 | 48 | > 20 | 43 | 0.17 ± 0.01 | 
17 | COc1ccc(Nc2nc(N)nc(-c3cc(OC)c(OC)c(OC)c3)n2)cc1 [Compound 19, N ^2-(4-Methoxyphenyl)-6-(3,4,5-trimethoxyphenyl)-1,3,5-triazine-2,4-diamine] | > 20 | 20 | 0.01 ± 0.001 | 0.01 | 195 to 197 | 52 | > 20 | 48 | 0.27 ± 0.02 | 200
18 | CN(Cc1cnc2nc(N)nc(N)c2n1)c1ccc(C(=O)N[C@@H](CCC(=O)O)C(=O)O)cc1 [Methotrexate, reference compound] |  |  | 0.01 ± 0.001 |  |  |  | 5.8 ± 0.5 |  |  | 
19 | Cc1cn(-c2cc(NC(=O)c3ccc(C)c(Nc4nccc(-c5cccnc5)n4)c3)cc(C(F)(F)F)c2)cn1 [Nilotinib, reference compound] |  |  | 0.04 ± 0.001 |  |  |  |  |  | 9.6 ± 0.5 | 
